The subject of data set [1] is Polyarthritis (adjuvant-induced, heat-killed Mycobacterium butyricum) in male CD rats. Briefly: Developing Adjuvant-Induced Polyarthritis in Rats. Type of data set: in vivo, rat. The settings on record: for % Inhibition: oral, once daily 14 days, non-injected hind paw volume. As to the method:
This test is used to determine the ability of compounds to affect the immunological processes involved in the induction and development of arthritis.
(§1) Polyarthritis is induced in male CD rats (150-170 g) by injection of heat-killed Mycobacterium butyricum. Each animal is given 0.1 ml of a 0.5% (5 mg/ml) adjuvant suspension in light mineral oil injected subcutaneously into the plantar surface of the right hind foot. At least 6 rats are used in each test group. Animals are dosed orally with test compound immediately after adjuvant injection, and once daily for a total of 14 days. Foot volumes are measured 24 hours after the final dose by mercury displacement to the lateral malleolus. Mean displacement volumes and their standard errors are calculated for the non-injected hind paws. Untreated normal and arthritic control groups are used as comparison for test compound effect. Results are expressed as percent of control effect.
The experiments reported here are performed using the same procedures as described in Example 3, except that 4-[2-(3',5'-di-t-butyl-4'-hydroxyphenol)ethenyl]pyridine (prior art) is under assay rather than the compound of the invention.

For data set [2], the system named is established adjuvant-induced polyarthritis in rats. Briefly: Established Adjuvant-Induced Polyarthritis in Rats. The class given is in vivo, rat. As to the method:
as §1
This assay is used to determine the ability of compounds to affect an established chronic inflammatory condition.
Rats in which polyarthritis has become established are selected 14 days after receiving the adjuvant suspension. They are treated daily with oral doses of test compound for 14 days (days 14-27). […] 24 hours after the final dose.

In data set [3] the test system is carrageenan induced paw edema in male CD rats. Briefly: Carrageenan Induced Paw Edema in Rats. The class given is in vivo, rat. As for the experimental part: This test is used to determine the ability of a compound to affect non-immune acute inflammation. Edema is produced in the right hind paw of male CD rats (150±10 g) by the subplantar injection of carrageenan (0.1 ml of a 1 percent suspension in saline). Ten rats are used in each test group. Test compound or its vehicle is administered orally 1 hour prior to carrageenan injection. Paw volume is determined by calculating the amount of mercury displaced after immersing the paw to the level of the lateral malleolus. Foot volumes are measured just prior to test compound administration and again 3 hours after carrageenan injection and the difference designated as edema volume.
Background: In the carrageenan paw model, swelling and tenderness develop within hours.

A further data set addresses T1, 5-Lipoxygenase (Oryctolagus cuniculus, UniProt G1SNX0).
T1 construct: glycogen elicited rabbit PMNs; endogenous in cells; host or cells: glycogen-elicited rabbit polymorphonuclear leucocytes (PMNs)
T1 sequence (G1SNX0 1-674): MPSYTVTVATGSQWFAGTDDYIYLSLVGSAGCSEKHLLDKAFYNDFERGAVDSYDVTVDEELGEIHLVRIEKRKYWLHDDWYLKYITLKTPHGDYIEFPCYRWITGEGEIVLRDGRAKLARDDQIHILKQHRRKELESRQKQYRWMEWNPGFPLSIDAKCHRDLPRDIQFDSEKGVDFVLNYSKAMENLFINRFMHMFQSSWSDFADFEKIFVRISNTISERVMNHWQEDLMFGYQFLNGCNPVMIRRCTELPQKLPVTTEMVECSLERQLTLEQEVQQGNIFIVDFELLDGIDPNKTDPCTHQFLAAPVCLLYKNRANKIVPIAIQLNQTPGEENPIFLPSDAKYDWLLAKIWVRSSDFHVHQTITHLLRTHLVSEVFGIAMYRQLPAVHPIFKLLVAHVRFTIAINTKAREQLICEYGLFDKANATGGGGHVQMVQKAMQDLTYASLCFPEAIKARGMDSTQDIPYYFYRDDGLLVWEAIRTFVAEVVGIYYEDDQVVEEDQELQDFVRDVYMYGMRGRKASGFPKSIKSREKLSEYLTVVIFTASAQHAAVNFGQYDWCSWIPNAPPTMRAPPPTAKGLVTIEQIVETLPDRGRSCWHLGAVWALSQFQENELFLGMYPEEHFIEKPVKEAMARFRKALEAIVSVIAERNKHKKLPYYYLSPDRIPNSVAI
As to the kind of experiment: Hydroxyacid Profile Assay of 5-Lipoxygenase Derived Arachidonic Acid Metabolites (5-HETE biosynthesis by glycogen-elicited PMNs). Type of data set: cell-based, rabbit. As to the method: Buffer A (8.70 g NaCl; 0.27 g KCl; 0.42 g Na2 HPO4; 0.76 g KH2 PO4; and 1.00 g dextrose per liter H2 O; pH 7.0) (0.325 ml) is introduced into each of a battery of screwtop culture tubes. Then, a compound (0.100 ml) to be assayed is dispensed into individual tubes. Dose-response curves are determined by triplicate measurements at each concentration. Control tubes receive Buffer A (0.100 ml) in lieu of compound. Next, glycogen elicited rabbit PMNs (2×10^7 cells/tube; 4×10^7 cells/ml (0.500 ml) are added to each tube. The tubes are vortexed and preincubated in a shaking 37° C. water bath for 15 minutes.
Thereafter, the tubes are removed from the water bath and Calcium Ionophore Solution (400 μg/ml A-23187; Sigma Chemical Co., St. Louis, MO) (0.025 ml), ^14 C-arachidonic acid (0.25 μCi in 0.025 ethanol; New England Nuclear Products, Boston, MA) (0.025 ml) and Ca^+2 solution (CaCl2.2H2 O); 105.8 mg/10 ml H2 O) (0.025 ml) are added in that order. The tubes are vortexed and returned to the water bath for 30 minutes. The reaction is then terminated by the addition of HCl (0.8N, 0.025 ml).
Extraction and concentration of ^14 C-labeled 5-HETE is performed as follows. First, a solution (5.01 ml) containing 2 parts ethyl acetate, 3 parts CH2 Cl2 and unlabeled arachidonic acid (0.01 ml) is added to each tube. The tubes are capped and briefly vortexed. The contents of each tube are poured into a polypropylene column fitted with a porous polyethylene disc and Whatman phase separation filter paper. The organic phase is collected by gravity filtration into a conical centrifuge tube, while the aqueous phase is retained in the column by the phase separation paper. Each culture tube is rinsed once with the EtOAc:CH2 Cl2 solution (no arachidonic acid) (0.1 ml) and the wash added to the column. The organic phase is concentrated (to 0.5 ml) using a Savant Speed Vac concentrator (Savant Instruments, Inc., Hicksville, NY).
After concentration of the organic phase, the tubes are vortexed and stored covered on ice. An aliquot (0.01 ml) is then removed for liquid scintillation counting in a Beckman LS7500 Liquid Scintillation Counter (Beckman Instruments Corp., Fullerton, CA). […] This volume is applied to a silica gel covered glass plate in a 10 mm streak. The remaining fluid in the tube is measured via syringe and noted.
The TLC plate is placed in a chromatography chamber containing the following solvent system: CHCl3 :MeOH:HOAc:H2 O(v/v; 90:9:1:0.65). The plate is then air dried and counter on a Berthold Linear TLC Analyzer (Berthold Instruments, Inc., Pittsburgh, PA) for 30 minutes per lane. The integrated area of the 5-HETE band for each compound is converted to percent of control and analyzed.

The test system of data set [4] is Human neutrophils (respiratory burst, H2O2 production). As to the kind of experiment: Effect of Test Compound on H2O2 Production by Neutrophils (PMNs). The conditions noted are these: for IC50: Homo sapiens, Neutrophil. Type of data set: cell-based. An excerpt:
During this process molecular oxygen is converted to superoxide anion, which in turn yields hydrogen peroxide, hydroxyl radical and products of myeloperoxidase action. These activated oxygen species contribute to the cells microbiocidal activity. However they have also been reported to contribute to the inflammatory process and tissue destruction in rheumatic diseases [J. Fantone and P. Ward, Amer. […] This assay measures the ability of a test compound to inhibit the respiratory burst process by its effect on hydrogen peroxide production.
Either 10 μL stock solution of test compound or 10 μL medium is added to the appropriate tubes, followed by 1 ml cells in each tube. The tubes are incubated at 37° C. for 15 minutes. To the PMA stimulated group 10 μL/tube 10^-5 M PMA is added. To the opsonized zymosan stimulated group 20 μL/tube 10 mg/ml opsonized zymosan is added. The tubes are mixed gently to disperse cells and stimulus (if any) and 100 μL is pipetted into each of four microtiter plates. The plates are covered and incubated 1 hour at 37° C. in CO2.
After the incubation period 10 μL 1N NaOH is added to each test well to develop the color. A blanking well is made up of 110 μl distilled water.
Mean OD values are calculated for each set of quadruplicate wells. Any artifactual change in absorbance due to a direct drug effect on the detection system is subtracted out from the ΔOD of the stimulated cells+drug tubes. The % inhibition of H2 O2 release by PMA or opsonized zymosan is calculated relative to the "O drug" control for each stimulus as follows: […]

Data set [5] relates to reverse passive arthus reaction (paw swelling) in rats. As to the kind of experiment: Reverse Passive Arthus Reaction. The class given is in vivo, rat. As for the experimental part:
The reverse passive arthus reaction is initiated by the interaction of antigen and antibody resulting in the formation of a precipitating immune complex, followed by fixation of complement, accumulation of leukocytes, edema and hemorrhage. The immunopathology of rheumatoid arthritis involves many of the parameters found in this reaction.
Test groups (5 rats per group) are dosed orally with compounds one hour prior to the sub-plantar injection into the right hind paw of rabbit anti-ovalbumin antibody (50 μg/0.1 ml). Immediately afterwards, ovalbumin (Sigma, #5503) (5 mg/0.2 ml) is injected i.v. via the tail vein. The right hind paw volume is measured at hourly intervals, from one to four hours after the injection of the immune reactants.
The change in paw volume for each animal is calculated by subtracting the zero hour paw volume (before injection) from the paw volume at the time of measurement. The mean of these values is calculated for each group. Results are expressed as percent inhibition of paw swelling compared to untreated controls.

Data set [6] concerns MMC-16 cells, LTC4 release (lipoxygenase pathway). As to the kind of experiment: Mouse Mastocytoma Cell Leukotriene Release. The class given is cell-based. As to the method: The MMC-16 cell line represents a convenient in vitro model for studying the lipoxygenase pathway and offers an effective screening method by which inhibitory test compounds can be identified.
Cultured MMC-16 cells are suspended in Ca^++ free phosphate buffer at a concentration of 10^7 cells/ml. The cell suspension is distributed into plastic culture tubes, 1 ml/tube. Duplicate tubes are used for each drug concentration tested, with drug solution (0.2 ml) added to each tube. An ionophore control consists of Ca^++ free buffer (0.2 ml) added to two tubes, and a blank (0.4 ml Ca^++ free buffer) added to two tubes. CaCl2 solution (0.1 ml) is added to the drug and ionophore control tubes, which are vortexed and incubated at 37° C. for 40 minutes. The tubes are then centrifuged at 1,000×g for 10 minutes, and the supernatants collected and added to 4 volumes of absolute ethanol. LTC4 content is then assayed for by either radioimmunoassay or high performance liquid chromatography.

The next data set in a line: in vivo. The settings on record: rat.

Usually % Inhibition stands for the percentage by which the read-out fell short of the control. The term ED50 denotes the midpoint of the dose-response relation. Broadly, the IC50 is the concentration that inhibits the measured activity by half. The inhibition is the change of the read-out against control, counted positive when it falls.

Read-outs that look alike come from different tables or passages of the source.

Protocol for in vivo: A 50% ulcerogenic response in the animals tested (UD50) at 200 mg/kg for 4 days is observable when the rats are examined 24 hours after the last dose.

`CC(C)(C)c1cc(C=Cc2ccncc2)cc(C(C)(C)C)c1O` [4-[2-(3',5'-di-t-butyl-4'-hydroxyphenyl)ethenyl]pyridine, reference compound]: in data set [1] (50 mg/kg), the “% Inhibition” value is recorded as 0%.

For the compound `CC(C)(C)c1cc(C=Cc2cccnc2)cc(C(C)(C)C)c1O` [Compound 1, 3-[2-(3,5-di-t-butyl-4-hydroxyphenyl)ethenyl]-pyridine], the “% Inhibition” value in data set [1] (5 mg/kg) is reported as 56%; in data set [1] (50 mg/kg), 82%; in data set [2] (5.0 mg/kg, oral, daily days 14-27), 60%; in data set [2] (10.0 mg/kg, oral, daily days 14-27), 74%; in data set [2] (20.0 mg/kg, oral, daily days 14-27) it was 79%; in data set [2] (40.0 mg/kg, oral, daily days 14-27), 82%. Further, the “% Inhibition” value in data set [3] (100 mg/kg, oral, 1 hour prior to carrageenan, edema at 3 hours) is recorded as 56%; in data set [5] (1 mg/kg oral, hour 1), 17%; in data set [5] (1 mg/kg oral, hour 2), 19%; in data set [5] (1 mg/kg oral, hour 3), 26%; in data set [5] (1 mg/kg oral, hour 4), 10%; in data set [5] (30 mg/kg oral, hour 1) it was 29%. In addition, the “% Inhibition” value is given as 50% in data set [5] (30 mg/kg oral, hour 2); 55% in data set [5] (30 mg/kg oral, hour 3); 44% in data set [5] (30 mg/kg oral, hour 4); 7% in data set [5] (100 mg/kg oral, hour 1); 48% in data set [5] (100 mg/kg oral, hour 2); 55% in data set [5] (100 mg/kg oral, hour 3). The “% Inhibition” value in data set [5] (100 mg/kg oral, hour 4) amounted to 22%. Further, the “activity in developing adjuvant arthritis screen in the rat” value in data set [1] (in words) is given as “active”. In data set [2] (in words), the “activity in established adjuvant arthritis screen in the rat” value was “active”. Besides, the ED50 in data set [2] (rat established adjuvant arthritis, oral, daily days 14-27) stood at 4 mg/kg. Further, the “activity in carrageenan paw edema screen” value in data set [3] (in words) was “active”. For the same compound, the IC50 at 5-Lipoxygenase stood at 3 µM; in data set [4] (read-out: Opsonized Zymosan Stimulated Oxidative Burst IC50) it was 14 µM; in data set [4] (read-out: PMA Stimulated Oxidative Burst IC50), 25 µM; in data set [6] (LTC4 release, MMC-16 cells), 7 µM. Further, at 5-Lipoxygenase (5 × 10^-5 M), the inhibition at 50 µM amounted to 66%. In addition, the inhibition at 5 µM on 5-Lipoxygenase (5 × 10^-6 M) worked out at 68%. Also, the inhibition at 0.5 µM on 5-Lipoxygenase (5 × 10^-7 M) is 18%. In addition, the inhibition at 10 µM (at 5-Lipoxygenase (10^-5 M); in data set [6] (10^-5 M)) was 67% each time. Moreover, the inhibition at 1 µM on 5-Lipoxygenase (10^-6 M) was 29%; in data set [6] (10^-6 M) it was 0%. Besides, on 5-Lipoxygenase (in words), the “inhibition of 5-lipoxygenase” value is “inhibit”. Also, the “release of pro-inflammatory oxygen metabolites from stimulated neutrophils” value in data set [4] (in words) was “inhibited”. For the same compound, the “activity in reverse passive arthus screen” value in data set [5] (in words) is “active”. Further, at 30 µM the inhibition in data set [6] (3 × 10^-5 M) was 100%. In addition, the inhibition at 3 µM in data set [6] (3 × 10^-6 M) stood at 18%. In “in vivo”, this compound gave a TD50 at 24 h of 200 mg/kg.

(Values after US4743606A, “3-[2-(3',5'-di-t-butyl-4'-hydroxyphenyl)ethenyl]pyridine having anti-inflammatory and anti-arthritic properties” (Boehringer Ingelheim Pharmaceuticals, Inc., priority 1986, dated 1988).)
